Molecules are shown by their SMILES. Starred links: 1 amine or outer side, 2 acyl side, 3 side chain; linkers in the order of their positions; H or OH if unused. Positions of bridges follow the written chain, without caps; N, C: chain ends. Non-standard residues stand in square brackets, D forms with d. Residues, ends and D or L forms follow the SMILES beside them. Groups on a side chain read outwards from the residue. *: point of attachment. Cholyl = C[C@H](CCC(=O)*)[C@H]1CC[C@H]2[C@@H]3[C@H](O)C[C@@H]4C[C@H](O)CC[C@]4(C)[C@H]3C[C@H](O)[C@]12C; Dehydrocholoyl = C[C@H](CCC(=O)*)[C@H]1CC[C@H]2[C@@H]3C(=O)C[C@@H]4CC(=O)CC[C@]4(C)[C@H]3CC(=O)[C@]12C; X22 = O=C(Cn1cc(C[C@H](N[*:1])C(=O)[*:2])c2ccccc21)NCCC1CC1; X11 = O=C(Cn1cc(C[C@H](N[*:1])C(=O)[*:2])c2ccccc21)NCCCCCO; X32 = CCCNC(=O)Cn1cc(C[C@H](N[*:1])C(=O)[*:2])c2ccccc21; X1 = NCCNC(=O)Cn1cc(C[C@H](N[*:1])C(=O)[*:2])c2ccccc21; Pro(4R-Me) = C[C@H]1CN[C@H](C(=O)O)C1; Hyp = O=C(O)[C@@H]1C[C@@H](O)CN1; NMeNle = CCCC[C@H](NC)C(=O)O; NMeA = CN[C@@H](C)C(=O)O; Dab = NCC[C@H](N)C(=O)O; Dap = NC[C@H](N)C(=O)O

The target of this assay is T1, PD-1/PD-L1 (Homo sapiens, UniProt Q9NZQ7).
T1 construct: TVMV protease site (C); made in house; host or cells: HEK293T cells
T1 sequence (Q9NZQ7 18-239): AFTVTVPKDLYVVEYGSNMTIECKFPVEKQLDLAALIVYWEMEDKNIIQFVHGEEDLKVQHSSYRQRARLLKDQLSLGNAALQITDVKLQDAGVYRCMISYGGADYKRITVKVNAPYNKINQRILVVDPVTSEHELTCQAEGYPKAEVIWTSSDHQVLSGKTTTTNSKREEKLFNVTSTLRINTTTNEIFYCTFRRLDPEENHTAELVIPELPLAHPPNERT
Description: PD-1/PD-L1 Homogenous Time-Resolved Fluorescence (HTRF) binding assay. As to conditions: PD-L1-His 10 nM, PD-1-Ig 20 nM; read-out: HTRF IC50. Put shortly:
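Inhibitors pre-incubated 15 min with PD-L1-His (10 nM final) in dPBS, 0.1% BSA, 0.05% Tween-20, then 15 min with PD-1-Ig (20 nM final). Eu-cryptate anti-Ig (1 nM) and APC anti-His (20 nM) added, 30 min equilibration; HTRF 665/620 nm ratio. Human ECD proteins from HEK293T.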
In general terms: TR-FRET usually uses a lanthanide donor and a delayed reading to cut background.
By IC50 is commonly meant the midpoint of a concentration-inhibition curve. Turning to `CCCC[C@H]1C(=O)N(C)[C@@H](CCCC)C(=O)N[C@@H](CC(C)C)C(=O)N[C@H](C(=O)NCC(N)=O)CSCC(=O)N[C@@H](Cc2ccc(O)cc2)C(=O)N(C)[C@@H](C)C(=O)N[C@@H](CC(N)=O)C(=O)N2CCC[C@H]2C(=O)N[C@@H](CNC(=O)CC[C@@H](C)[C@H]2CC[C@H]3[C@@H]4C(=O)C[C@@H]5CC(=O)CC[C@]5(C)[C@H]4CC(=O)[C@]23C)C(=O)N[C@@H](CC(C)C)C(=O)N2C[C@H](O)C[C@H]2C(=O)N[C@@H](Cc2c[nH]c3ccccc23)C(=O)N[C@@H](CCNC(=O)CC[C@@H](C)[C@H]2CC[C@H]3[C@@H]4C(=O)C[C@@H]5CC(=O)CC[C@]5(C)[C@H]4CC(=O)[C@]23C)C(=O)N[C@@H](Cc2cn(CC(=O)NCCN)c3ccccc23)C(=O)N1C` [Example 2019] ({CH2CO}-Y[NMeA]NP[Dap](Dehydrocholoyl)L[Hyp]W[Dab](Dehydrocholoyl)[X1][NMeNle][NMeNle]LCG-NH2; thioether N-14), the IC50 was 19 nM. The result for `CCCC[C@H]1C(=O)N(C)[C@@H](CCCC)C(=O)N[C@@H](CC(C)C)C(=O)N[C@H](C(=O)NCC(N)=O)CSCC(=O)N[C@@H](Cc2ccc(O)cc2)C(=O)N(C)[C@@H](C)C(=O)N[C@@H](CC(N)=O)C(=O)N2CCC[C@H]2C(=O)N[C@@H](CNC(=O)CC[C@@H](C)[C@H]2CC[C@H]3[C@@H]4[C@H](O)C[C@@H]5C[C@H](O)CC[C@]5(C)[C@H]4C[C@H](O)[C@]23C)C(=O)N[C@@H](CC(C)C)C(=O)N2C[C@H](O)C[C@H]2C(=O)N[C@@H](Cc2c[nH]c3ccccc23)C(=O)N[C@@H](CCNC(=O)CC[C@@H](C)[C@H]2CC[C@H]3[C@@H]4[C@H](O)C[C@@H]5C[C@H](O)CC[C@]5(C)[C@H]4C[C@H](O)[C@]23C)C(=O)N[C@@H](Cc2cn(CC(=O)NCCN)c3ccccc23)C(=O)N1C` [Example 2021] ({CH2CO}-Y[NMeA]NP[Dap](Cholyl)L[Hyp]W[Dab](Cholyl)[X1][NMeNle][NMeNle]LCG-NH2; thioether N-14) reads 180 nM; that for `CCCC[C@H]1C(=O)N(C)[C@@H](CCCC)C(=O)N[C@@H](CC(C)C)C(=O)N[C@H](C(=O)NCC(N)=O)CSCC(=O)N[C@@H](Cc2ccc(O)cc2)C(=O)N(C)[C@@H](C)C(=O)N[C@@H](CC(N)=O)C(=O)N2CCC[C@H]2C(=O)N[C@@H](CNC(=O)CC[C@@H](C)[C@H]2CC[C@H]3[C@@H]4[C@H](O)C[C@@H]5C[C@H](O)CC[C@]5(C)[C@H]4C[C@H](O)[C@]23C)C(=O)N[C@@H](CC(C)C)C(=O)N2C[C@H](O)C[C@H]2C(=O)N[C@@H](Cc2c[nH]c3ccccc23)C(=O)N[C@@H](CCNC(=O)CC[C@@H](C)[C@H]2CC[C@H]3[C@@H]4[C@H](O)C[C@@H]5C[C@H](O)CC[C@]5(C)[C@H]4C[C@H](O)[C@]23C)C(=O)N[C@@H](Cc2cn(CC(=O)NCCC)c3ccccc23)C(=O)N1C` [Example 2023] ({CH2CO}-Y[NMeA]NP[Dap](Cholyl)L[Hyp]W[Dab](Cholyl)[X32][NMeNle][NMeNle]LCG-NH2; thioether N-14), 660 nM; that for `CCCC[C@H]1C(=O)N(C)[C@@H](CCCC)C(=O)N[C@@H](CC(C)C)C(=O)N[C@H](C(=O)NCC(N)=O)CSCC(=O)N[C@@H](Cc2ccc(O)cc2)C(=O)N(C)[C@@H](C)C(=O)N[C@@H](CC(N)=O)C(=O)N2CCC[C@H]2C(=O)N[C@@H](CNC(=O)CNC(=O)CC[C@@H](C)[C@H]2CC[C@H]3[C@@H]4[C@H](O)C[C@@H]5C[C@H](O)CC[C@]5(C)[C@H]4C[C@H](O)[C@]23C)C(=O)N[C@@H](CC(C)C)C(=O)N2C[C@H](C)C[C@H]2C(=O)N[C@@H](Cc2c[nH]c3ccccc23)C(=O)N[C@@H](CCNC(=O)CNC(=O)CC[C@@H](C)[C@H]2CC[C@H]3[C@@H]4[C@H](O)C[C@@H]5C[C@H](O)CC[C@]5(C)[C@H]4C[C@H](O)[C@]23C)C(=O)N[C@@H](Cc2cn(CC(=O)NCCN)c3ccccc23)C(=O)N1C` [Example 2026] ({CH2CO}-Y[NMeA]NP[Dap]([Gly-Cholyl])L[Pro(4R-Me)]W[Dab]([Gly-Cholyl])[X1][NMeNle][NMeNle]LCG-NH2; thioether N-14), 400 nM. Next, `CCCC[C@H]1C(=O)N(C)[C@@H](CCCC)C(=O)N[C@@H](CC(C)C)C(=O)N[C@H](C(=O)NCC(N)=O)CSCC(=O)N[C@@H](Cc2ccc(O)cc2)C(=O)N(C)[C@@H](C)C(=O)N[C@@H](CC(N)=O)C(=O)N2CCC[C@H]2C(=O)N[C@@H](CNC(=O)CNC(=O)CC[C@@H](C)[C@H]2CC[C@H]3[C@@H]4[C@H](O)C[C@@H]5C[C@H](O)CC[C@]5(C)[C@H]4C[C@H](O)[C@]23C)C(=O)N[C@@H](CC(C)C)C(=O)N2C[C@H](C)C[C@H]2C(=O)N[C@@H](Cc2c[nH]c3ccccc23)C(=O)N[C@@H](CCNC(=O)CNC(=O)CC[C@@H](C)[C@H]2CC[C@H]3[C@@H]4[C@H](O)C[C@@H]5C[C@H](O)CC[C@]5(C)[C@H]4C[C@H](O)[C@]23C)C(=O)N[C@@H](Cc2cn(CC(=O)NCCC)c3ccccc23)C(=O)N1C` [Example 2027] ({CH2CO}-Y[NMeA]NP[Dap]([Gly-Cholyl])L[Pro(4R-Me)]W[Dab]([Gly-Cholyl])[X32][NMeNle][NMeNle]LCG-NH2; thioether N-14): 990 nM.

Turning to `CCCC[C@H]1C(=O)N(C)[C@@H](CCCC)C(=O)N[C@@H](CC(C)C)C(=O)N[C@H](C(=O)NCC(N)=O)CSCC(=O)N[C@@H](Cc2ccc(O)cc2)C(=O)N(C)[C@@H](C)C(=O)N[C@@H](CC(N)=O)C(=O)N2CCC[C@H]2C(=O)N[C@@H](CNC(=O)CNC(=O)CC[C@@H](C)[C@H]2CC[C@H]3[C@@H]4[C@H](O)C[C@@H]5C[C@H](O)CC[C@]5(C)[C@H]4C[C@H](O)[C@]23C)C(=O)N[C@@H](CC(C)C)C(=O)N2C[C@H](C)C[C@H]2C(=O)N[C@@H](Cc2c[nH]c3ccccc23)C(=O)N[C@@H](CCNC(=O)CNC(=O)CC[C@@H](C)[C@H]2CC[C@H]3[C@@H]4[C@H](O)C[C@@H]5C[C@H](O)CC[C@]5(C)[C@H]4C[C@H](O)[C@]23C)C(=O)N[C@@H](Cc2cn(CC(=O)NCCC3CC3)c3ccccc23)C(=O)N1C` [Example 2028] ({CH2CO}-Y[NMeA]NP[Dap]([Gly-Cholyl])L[Pro(4R-Me)]W[Dab]([Gly-Cholyl])[X22][NMeNle][NMeNle]LCG-NH2; thioether N-14), the IC50 was 660 nM. Next, `CCCC[C@H]1C(=O)N(C)[C@@H](CCCC)C(=O)N[C@@H](CC(C)C)C(=O)N[C@H](C(=O)NCC(N)=O)CSCC(=O)N[C@@H](Cc2ccc(O)cc2)C(=O)N(C)[C@@H](C)C(=O)N[C@@H](CC(N)=O)C(=O)N2CCC[C@H]2C(=O)N[C@@H](CNC(=O)CNC(=O)CC[C@@H](C)[C@H]2CC[C@H]3[C@@H]4[C@H](O)C[C@@H]5C[C@H](O)CC[C@]5(C)[C@H]4C[C@H](O)[C@]23C)C(=O)N[C@@H](CC(C)C)C(=O)N2C[C@H](C)C[C@H]2C(=O)N[C@@H](Cc2c[nH]c3ccccc23)C(=O)N[C@@H](CCNC(=O)CNC(=O)CC[C@@H](C)[C@H]2CC[C@H]3[C@@H]4[C@H](O)C[C@@H]5C[C@H](O)CC[C@]5(C)[C@H]4C[C@H](O)[C@]23C)C(=O)N[C@@H](Cc2cn(CC(=O)NCCCCCO)c3ccccc23)C(=O)N1C` [Example 2029] ({CH2CO}-Y[NMeA]NP[Dap]([Gly-Cholyl])L[Pro(4R-Me)]W[Dab]([Gly-Cholyl])[X11][NMeNle][NMeNle]LCG-NH2; thioether N-14): 670 nM.

The values are drawn from patent publication US20230183292A1, “IMMUNOMODULATORS” (priority 2020, published 2023).
